Measured values from article PMC10252048, “Correction: Gubič et al. Design of New Potent and Selective Thiophene-Based KV1.3 Inhibitors and Their Potential for Anticancer Activity. Cancers 2022, 14, 2595” (Cancers, 2023).

Legend:
Assay in all cases: selectivity, HiClamp system on oocytes
Assay type in all cases: cell-based
Conditions in all cases: 10 µM
KV1.2 = molecular target: T1, KV1.2 (Homo sapiens, UniProt P16389)
T1 construct: expressed in transfected cells; host or cells: Xenopus laevis oocytes

KV4.2 = molecular target: T2, KV4.2 (Homo sapiens, UniProt Q9NZV8)
T2 construct: expressed in transfected cells; host or cells: Xenopus laevis oocytes
T2 sequence (Q9NZV8 1-630): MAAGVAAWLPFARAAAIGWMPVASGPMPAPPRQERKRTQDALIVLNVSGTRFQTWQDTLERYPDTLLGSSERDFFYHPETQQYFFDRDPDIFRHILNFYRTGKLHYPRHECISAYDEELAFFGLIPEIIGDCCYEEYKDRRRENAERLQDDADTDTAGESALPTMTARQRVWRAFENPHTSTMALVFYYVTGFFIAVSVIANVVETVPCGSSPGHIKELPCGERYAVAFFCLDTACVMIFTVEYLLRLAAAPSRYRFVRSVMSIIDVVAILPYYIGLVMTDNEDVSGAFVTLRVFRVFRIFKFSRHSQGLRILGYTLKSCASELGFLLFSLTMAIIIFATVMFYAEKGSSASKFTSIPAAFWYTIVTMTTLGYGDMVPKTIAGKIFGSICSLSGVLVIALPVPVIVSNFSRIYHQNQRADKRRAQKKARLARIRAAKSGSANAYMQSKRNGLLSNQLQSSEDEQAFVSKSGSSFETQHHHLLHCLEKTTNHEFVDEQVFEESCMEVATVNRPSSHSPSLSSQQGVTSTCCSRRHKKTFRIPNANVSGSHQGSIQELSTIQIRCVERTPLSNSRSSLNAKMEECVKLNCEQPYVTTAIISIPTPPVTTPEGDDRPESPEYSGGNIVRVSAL

KV1.6 = molecular target: T3, KV1.6 (Homo sapiens, UniProt P17658)
T3 construct: expressed in transfected cells; host or cells: Xenopus laevis oocytes

KV1.4 = molecular target: T4, KV1.4 (Homo sapiens, UniProt P22459)
T4 construct: expressed in transfected cells; host or cells: Xenopus laevis oocytes

KV1.1 = molecular target: T5, KV1.1 (Homo sapiens, UniProt Q09470)
T5 construct: expressed in transfected cells; host or cells: Xenopus laevis oocytes

KV1.5 = molecular target: T6, KV1.5 (Homo sapiens, UniProt P22460)
T6 construct: expressed in transfected cells; host or cells: Xenopus laevis oocytes

KV10.1 = molecular target: T7, KV10.1 (Homo sapiens, UniProt O95259)
T7 construct: expressed in transfected cells; host or cells: Xenopus laevis oocytes
T7 sequence (O95259 1-989): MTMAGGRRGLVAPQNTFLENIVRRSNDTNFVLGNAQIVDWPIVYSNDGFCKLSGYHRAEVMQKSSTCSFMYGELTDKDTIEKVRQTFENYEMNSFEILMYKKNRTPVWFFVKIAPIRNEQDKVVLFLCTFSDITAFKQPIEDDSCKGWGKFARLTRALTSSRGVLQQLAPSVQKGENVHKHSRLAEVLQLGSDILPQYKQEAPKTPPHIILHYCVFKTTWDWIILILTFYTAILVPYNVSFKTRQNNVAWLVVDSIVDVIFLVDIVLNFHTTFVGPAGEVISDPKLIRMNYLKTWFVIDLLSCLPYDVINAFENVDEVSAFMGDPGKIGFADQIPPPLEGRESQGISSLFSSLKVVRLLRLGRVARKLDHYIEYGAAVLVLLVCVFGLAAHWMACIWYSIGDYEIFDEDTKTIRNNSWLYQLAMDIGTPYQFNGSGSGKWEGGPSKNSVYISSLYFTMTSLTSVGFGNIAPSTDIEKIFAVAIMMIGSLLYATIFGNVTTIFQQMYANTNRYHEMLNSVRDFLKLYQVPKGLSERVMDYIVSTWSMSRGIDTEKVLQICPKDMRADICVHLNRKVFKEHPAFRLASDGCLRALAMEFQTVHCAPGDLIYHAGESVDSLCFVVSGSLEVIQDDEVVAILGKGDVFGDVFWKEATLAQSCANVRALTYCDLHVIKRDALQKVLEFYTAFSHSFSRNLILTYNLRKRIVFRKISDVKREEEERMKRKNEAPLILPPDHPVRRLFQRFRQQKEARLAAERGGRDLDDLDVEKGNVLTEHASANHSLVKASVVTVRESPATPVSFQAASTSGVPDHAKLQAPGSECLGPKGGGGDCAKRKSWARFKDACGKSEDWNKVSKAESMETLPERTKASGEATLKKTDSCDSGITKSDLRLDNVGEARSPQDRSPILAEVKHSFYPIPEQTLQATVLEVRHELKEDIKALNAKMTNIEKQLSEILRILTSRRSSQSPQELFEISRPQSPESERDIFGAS

KV2.1 = molecular target: T8, KV2.1 (Homo sapiens, UniProt Q14721)
T8 construct: expressed in transfected cells; host or cells: Xenopus laevis oocytes
T8 sequence (Q14721 1-858): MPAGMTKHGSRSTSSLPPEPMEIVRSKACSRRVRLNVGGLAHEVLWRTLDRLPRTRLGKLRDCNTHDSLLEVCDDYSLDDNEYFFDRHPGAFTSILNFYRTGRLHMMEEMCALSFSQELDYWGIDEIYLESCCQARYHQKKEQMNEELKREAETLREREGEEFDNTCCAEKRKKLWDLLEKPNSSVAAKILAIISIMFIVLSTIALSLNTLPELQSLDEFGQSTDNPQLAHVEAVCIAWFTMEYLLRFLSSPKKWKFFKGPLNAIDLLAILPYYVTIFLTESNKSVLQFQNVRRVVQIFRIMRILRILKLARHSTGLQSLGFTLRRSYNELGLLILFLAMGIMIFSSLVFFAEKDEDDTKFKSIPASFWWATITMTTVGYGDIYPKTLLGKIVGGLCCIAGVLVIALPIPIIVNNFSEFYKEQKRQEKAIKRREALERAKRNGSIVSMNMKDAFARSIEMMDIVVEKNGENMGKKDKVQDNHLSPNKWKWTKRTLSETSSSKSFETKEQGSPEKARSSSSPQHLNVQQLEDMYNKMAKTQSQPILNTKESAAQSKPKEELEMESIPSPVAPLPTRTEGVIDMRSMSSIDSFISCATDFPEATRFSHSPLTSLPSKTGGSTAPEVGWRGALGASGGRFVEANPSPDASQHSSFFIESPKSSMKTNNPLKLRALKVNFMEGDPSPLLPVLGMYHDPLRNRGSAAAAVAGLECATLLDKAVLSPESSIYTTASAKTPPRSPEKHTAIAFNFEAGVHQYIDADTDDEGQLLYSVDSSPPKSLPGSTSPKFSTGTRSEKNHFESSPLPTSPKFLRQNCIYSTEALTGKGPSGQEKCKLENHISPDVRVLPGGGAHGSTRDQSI

T1 sequence (P16389 whole entry): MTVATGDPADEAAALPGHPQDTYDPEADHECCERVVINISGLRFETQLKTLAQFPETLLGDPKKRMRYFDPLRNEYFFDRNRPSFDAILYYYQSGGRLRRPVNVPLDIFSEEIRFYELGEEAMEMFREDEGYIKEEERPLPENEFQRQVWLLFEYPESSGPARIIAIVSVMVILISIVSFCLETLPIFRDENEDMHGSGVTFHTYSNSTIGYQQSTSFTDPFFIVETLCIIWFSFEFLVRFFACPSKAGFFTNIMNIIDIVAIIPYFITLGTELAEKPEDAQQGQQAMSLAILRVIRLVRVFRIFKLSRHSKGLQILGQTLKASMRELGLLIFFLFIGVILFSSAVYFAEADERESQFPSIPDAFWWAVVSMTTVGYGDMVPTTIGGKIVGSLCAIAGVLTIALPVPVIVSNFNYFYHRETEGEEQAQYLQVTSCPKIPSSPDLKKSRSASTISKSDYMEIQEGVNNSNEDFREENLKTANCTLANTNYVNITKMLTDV
T4 sequence (P22459 whole entry): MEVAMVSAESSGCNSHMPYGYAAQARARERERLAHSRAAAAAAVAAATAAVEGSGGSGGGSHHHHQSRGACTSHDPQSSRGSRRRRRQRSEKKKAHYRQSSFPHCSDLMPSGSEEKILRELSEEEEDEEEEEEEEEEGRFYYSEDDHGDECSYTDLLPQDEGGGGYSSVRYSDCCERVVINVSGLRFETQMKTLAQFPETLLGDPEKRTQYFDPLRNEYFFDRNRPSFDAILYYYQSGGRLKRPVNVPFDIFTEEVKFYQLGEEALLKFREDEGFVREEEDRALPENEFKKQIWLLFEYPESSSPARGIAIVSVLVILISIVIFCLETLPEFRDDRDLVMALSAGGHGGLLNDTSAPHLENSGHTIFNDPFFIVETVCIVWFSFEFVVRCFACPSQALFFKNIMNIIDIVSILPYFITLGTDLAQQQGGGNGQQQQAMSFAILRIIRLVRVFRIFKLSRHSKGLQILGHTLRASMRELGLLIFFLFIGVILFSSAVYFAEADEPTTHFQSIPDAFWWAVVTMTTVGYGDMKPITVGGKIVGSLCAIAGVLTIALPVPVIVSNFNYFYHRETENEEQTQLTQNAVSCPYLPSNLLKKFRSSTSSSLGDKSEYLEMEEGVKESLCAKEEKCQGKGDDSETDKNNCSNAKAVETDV
T3 sequence (P17658 whole entry): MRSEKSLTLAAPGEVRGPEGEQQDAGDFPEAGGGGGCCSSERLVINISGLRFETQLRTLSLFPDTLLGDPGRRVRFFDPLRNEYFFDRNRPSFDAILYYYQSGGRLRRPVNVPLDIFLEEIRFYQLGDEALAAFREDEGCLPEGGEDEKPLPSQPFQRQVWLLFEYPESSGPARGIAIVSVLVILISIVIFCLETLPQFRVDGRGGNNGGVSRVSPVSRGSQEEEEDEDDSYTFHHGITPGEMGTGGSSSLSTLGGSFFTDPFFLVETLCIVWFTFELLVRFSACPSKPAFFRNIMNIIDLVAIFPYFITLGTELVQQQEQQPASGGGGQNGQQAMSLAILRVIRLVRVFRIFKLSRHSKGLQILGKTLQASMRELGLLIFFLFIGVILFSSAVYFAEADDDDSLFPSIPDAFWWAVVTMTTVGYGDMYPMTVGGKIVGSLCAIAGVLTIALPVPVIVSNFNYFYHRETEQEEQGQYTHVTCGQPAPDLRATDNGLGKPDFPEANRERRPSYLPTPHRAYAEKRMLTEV
T5 sequence (Q09470 whole entry): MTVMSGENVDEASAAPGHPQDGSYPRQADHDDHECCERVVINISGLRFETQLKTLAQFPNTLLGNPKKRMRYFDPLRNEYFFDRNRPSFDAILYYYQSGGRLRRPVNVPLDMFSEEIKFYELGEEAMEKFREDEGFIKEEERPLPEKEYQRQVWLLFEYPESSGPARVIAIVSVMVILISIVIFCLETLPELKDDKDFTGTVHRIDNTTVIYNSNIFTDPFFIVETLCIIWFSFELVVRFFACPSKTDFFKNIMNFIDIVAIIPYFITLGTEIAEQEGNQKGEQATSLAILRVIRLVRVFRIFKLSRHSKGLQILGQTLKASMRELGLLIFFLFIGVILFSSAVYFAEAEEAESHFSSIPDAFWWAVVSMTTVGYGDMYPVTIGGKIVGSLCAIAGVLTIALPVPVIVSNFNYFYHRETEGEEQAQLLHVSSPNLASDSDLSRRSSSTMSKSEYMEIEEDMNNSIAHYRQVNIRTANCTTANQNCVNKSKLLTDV
T6 sequence (P22460 whole entry): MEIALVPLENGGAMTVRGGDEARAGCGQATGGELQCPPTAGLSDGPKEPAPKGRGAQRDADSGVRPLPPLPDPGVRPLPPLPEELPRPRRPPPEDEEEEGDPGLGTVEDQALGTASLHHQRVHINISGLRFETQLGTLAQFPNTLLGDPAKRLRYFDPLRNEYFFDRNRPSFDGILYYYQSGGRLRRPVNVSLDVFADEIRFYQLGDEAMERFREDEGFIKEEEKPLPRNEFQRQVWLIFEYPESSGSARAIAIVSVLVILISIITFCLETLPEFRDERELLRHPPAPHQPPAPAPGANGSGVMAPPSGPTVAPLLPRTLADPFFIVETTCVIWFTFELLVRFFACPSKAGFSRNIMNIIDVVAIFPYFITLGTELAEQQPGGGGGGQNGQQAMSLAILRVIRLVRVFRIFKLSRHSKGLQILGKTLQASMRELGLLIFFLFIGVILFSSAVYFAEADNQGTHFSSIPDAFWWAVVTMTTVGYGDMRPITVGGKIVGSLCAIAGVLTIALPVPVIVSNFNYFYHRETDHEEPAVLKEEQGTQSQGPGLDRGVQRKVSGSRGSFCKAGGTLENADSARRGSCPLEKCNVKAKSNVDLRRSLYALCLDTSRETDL

effect on KV1.2 (KV1.2): no significant effects | effect on KV4.2 (KV4.2): no significant effects | effect on KV1.6 (KV1.6): no significant effects | effect on KV1.4 (KV1.4): no significant effects | effect on KV1.1 (KV1.1): no significant effects | effect on KV1.5 (KV1.5): no significant effects | effect on KV10.1 (KV10.1): no significant effects | effect on KV2.1 (KV2.1): no significant effects
Structure (SMILES): O=c1ccc2c(OCCCCOc3ccccc3)c3ccoc3cc2o1 [PAP-1 (1), PAP-1]
